Drawing on ChEMBL document CHEMBL1151797, “Discovery of inhibitors of the channel-activating protease prostasin (CAP1/PRSS8) utilizing structure-based design” (Bioorg Med Chem Lett, 2008), this text covers Ki for 24 compounds.

Broadly, the Ki is a measure of affinity in units of concentration, obtained from inhibition or displacement.

Some results are limits rather than exact numbers.

Chain of Prostasin (Q16651 45-322 limits assumed, other chains not shown): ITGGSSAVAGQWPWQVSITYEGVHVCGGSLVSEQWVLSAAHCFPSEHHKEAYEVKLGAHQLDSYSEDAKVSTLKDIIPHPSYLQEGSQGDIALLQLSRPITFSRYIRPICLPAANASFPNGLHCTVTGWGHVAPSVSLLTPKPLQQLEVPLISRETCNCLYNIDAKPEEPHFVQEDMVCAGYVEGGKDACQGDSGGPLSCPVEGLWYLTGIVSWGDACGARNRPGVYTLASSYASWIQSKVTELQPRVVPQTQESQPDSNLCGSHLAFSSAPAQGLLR

This experiment concerns the target Prostasin (Homo sapiens, UniProt Q16651). In words: Binding affinity to human prostasin.
In the case of `NCCCC[C@H](NC(=O)[C@@H]1C[C@@H](OCc2cccc(C(F)(F)F)c2)CN1C(=O)[C@@H](CCc1ccccc1)NC(=O)OCc1ccccc1)C(=O)c1nc2ccccc2o1`, affinity was put at a Ki of 41 nM.
With `NCCCC[C@H](NC(=O)[C@@H]1C[C@@H](OCC2CCCC2)CN1C(=O)[C@@H](CCc1ccccc1)NC(=O)OCc1ccccc1)C(=O)c1nc2ccccc2o1` the figure was 65 nM; with `NCCCC[C@H](NC(=O)[C@@H]1C[C@@H](OC(=O)Nc2ccccc2)CN1C(=O)[C@@H](CCc1ccccc1)NC(=O)OCc1ccccc1)C(=O)c1nc2ccccc2o1`, 130 nM.
On to `NCCCC[C@H](NC(=O)[C@@H]1[C@@H](c2ccccc2)CCN1C(=O)[C@@H](CCc1ccccc1)NC(=O)OCc1ccccc1)C(=O)c1nc2ccccc2o1`, for which the affinity corresponds to a Ki of 267 nM.
The value for `NCCCC[C@H](NC(=O)[C@@H]1C[C@@H](OC(=O)N2CCCCC2)CN1C(=O)[C@@H](CCc1ccccc1)NC(=O)OCc1ccccc1)C(=O)c1nc2ccccc2o1` was 29 nM; that for `NCCCC[C@H](NC(=O)[C@@H]1C[C@@H](OCc2ccccc2)CN1C(=O)[C@@H](CCc1ccccc1)NC(=O)OCc1ccccc1)C(=O)c1nc2ccccc2o1` was 40 nM.
The value for `NCCCC[C@H](NC(=O)[C@@H]1C[C@@H](OCC2CCCCC2)CN1C(=O)[C@@H](CCc1ccccc1)NC(=O)OCc1ccccc1)C(=O)c1nc2ccccc2o1` was 19 nM; that for `NCCCC[C@H](NC(=O)[C@@H]1C[C@@H](OC(=O)NCc2ccccc2)CN1C(=O)[C@@H](CCc1ccccc1)NC(=O)OCc1ccccc1)C(=O)c1nc2ccccc2o1` was 60 nM.
The value for `CN(C)C(=O)O[C@@H]1C[C@@H](C(=O)N[C@@H](CCCCN)C(=O)c2nc3ccccc3o2)N(C(=O)[C@@H](CCc2ccccc2)NC(=O)OCc2ccccc2)C1` was 1550 nM.
`NCCCC[C@H](NC(=O)[C@@H]1CCCN1C(=O)[C@@H](CCc1ccccc1)NC(=O)OCc1ccccc1)C(=O)c1nc2ccccc2o1` registered a Ki of 1400 nM.
The compound `CS(=O)(=O)c1ccc(CNC(=O)O[C@@H]2C[C@@H](C(=O)N[C@@H](CCCCN)C(=O)c3nc4ccccc4o3)N(C(=O)[C@@H](CCc3ccccc3)NC(=O)OCc3ccccc3)C2)cc1` registered a Ki of 176 nM.
With `NCCCC[C@H](NC(=O)[C@H](CCc1ccccc1)NC(=O)[C@H](Cc1cnc[nH]1)NC(=O)OCc1ccccc1)C(=O)c1nc2ccccc2o1` the figure was 2100 nM; with `NCCCC[C@H](NC(=O)[C@@H]1C[C@@H](OC(=O)N2CCCC2)CN1C(=O)[C@@H](CCc1ccccc1)NC(=O)OCc1ccccc1)C(=O)c1nc2ccccc2o1`, 101 nM; with `NCCCC[C@H](NC(=O)[C@@H]1C[C@@H](OCc2ccc(C(F)(F)F)cc2)CN1C(=O)[C@@H](CCc1ccccc1)NC(=O)OCc1ccccc1)C(=O)c1nc2ccccc2o1`, 28 nM.
The value for `NCCCC[C@H](NC(=O)[C@@H]1C[C@@H](OCc2ccc(Cl)cc2)CN1C(=O)[C@@H](CCc1ccccc1)NC(=O)OCc1ccccc1)C(=O)c1nc2ccccc2o1` was 12 nM.
The compound `NCCCC[C@H](NC(=O)[C@@H]1C[C@@H](OCc2ccc(F)cc2)CN1C(=O)[C@@H](CCc1ccccc1)NC(=O)OCc1ccccc1)C(=O)c1nc2ccccc2o1` displayed a Ki of 27 nM.
In turn, `Cc1ccc(CO[C@@H]2C[C@@H](C(=O)N[C@@H](CCCCN)C(=O)c3nc4ccccc4o3)N(C(=O)[C@@H](CCc3ccccc3)NC(=O)OCc3ccccc3)C2)cc1` had a Ki of 45 nM.
For `CC(C)C[C@H](NC(=O)[C@H](Cc1cnc[nH]1)NC(=O)OCc1ccccc1)C(=O)N[C@@H](CCCCN)C(=O)c1nc2ccccc2o1`, the Ki came to 5720 nM.
The value for `NCCCC[C@H](NC(=O)[C@@H]1C[C@@H](O)CN1C(=O)[C@@H](CCc1ccccc1)NC(=O)OCc1ccccc1)C(=O)c1nc2ccccc2o1` was 1040 nM; that for `CC(C)C[C@H](NC(=O)[C@H](CCCCN)NC(=O)OCc1ccccc1)C(=O)N[C@@H](CCCCN)C(=O)c1nc2ccccc2o1` was 15200 nM; that for `NCCCC[C@H](NC(=O)[C@H](CCc1ccccc1)NC(=O)OCc1ccccc1)C(=O)c1nc2ccccc2o1` was over 100000 nM.
For `C[C@H]1CCN(C(=O)[C@@H](CCc2ccccc2)NC(=O)OCc2ccccc2)[C@@H]1C(=O)N[C@@H](CCCCN)C(=O)c1nc2ccccc2o1`, the affinity, expressed as Ki, was 49 nM.
With `CC(C)C[C@H](NC(=O)OCc1ccccc1)C(=O)N[C@@H](CCCCN)C(=O)c1nc2ccccc2o1` the figure was over 100000 nM; with `NCCCC[C@H](NC(=O)[C@@H]1C[C@@H](OC(=O)N2CCOCC2)CN1C(=O)[C@@H](CCc1ccccc1)NC(=O)OCc1ccccc1)C(=O)c1nc2ccccc2o1`, 510 nM.
